Experimental data reported in patent US9566312B2, “Cyclic peptides and use as medicines” (priority 2012, dated 2017).
Starred links: 1 amine or outer side, 2 acyl side, 3 side chain; linkers in the order of their positions; H or OH if unused. Non-standard residues stand in square brackets, D forms with d. Residues, ends and D or L forms follow the SMILES beside them. X64 = COC[C@@H]1CN(C[C@@H](C)[C@@H](C(=O)[*:2])N(C)[*:1])CCO1; X83 = C[C@H](COC(=O)N1CCC(O)CC1)[C@@H](C(=O)[*:2])N(C)[*:1]; X39 = C[C@H](CN1CCC(C#N)CC1)[C@@H](C(=O)[*:2])N(C)[*:1]; X47 = C[C@H](CN1CCC(F)(F)C1)[C@@H](C(=O)[*:2])N(C)[*:1]; MeBmt = C/C=C/C[C@@H](C)[C@@H](O)[C@H](NC)C(=O)O; X86 = C[C@@H](CO)[C@@H](C(=O)[*:2])N(C)[*:1]; NMeL = CN[C@@H](CC(C)C)C(=O)O; NMeV = CN[C@H](C(=O)O)C(C)C; dNMeA = CN[C@H](C)C(=O)O; Abu = CC[C@H](N)C(=O)O

Key:
[1] = tested on: peripheral blood mononuclear cells (PBMC); assay: Anti-proliferative or immunosuppressive activity, BrdU incorporation in PHA-stimulated PBMC; format: cell-based; conditions: PHA 3 μg/ml, 60 hour compound treatment; read-out: EMV PBMC IC50
Experimental: Method 3: Measuring Anti-Proliferative or Immunosuppressive Activity
The potential anti-proliferative activity of compounds on T-cells was analyzed based on the amount of bromodesoxy uridine (BrdU) incorporated into DNA of fresh peripheral blood mononuclear cells (PBMC) using the BrdU ELISA kit (Roche). The assay is performed in 96-well plate format with 30,000 PBMCs seeded per well in X-VIVO 15 medium (Lonza). T-cell proliferation was stimulated by addition of 3 μg/ml phytohemagglutinin (PHA) in PBMCs obtained from two donors.

[2] = target: cyclophilin A (CypA) (Homo sapiens (Human), UniProt P62937); assay: Inhibitor binding to cyclophilin proteins by SPR, CypA; parameters: unit not given here; conditions: 1:1 binding model
Sequence of cyclophilin A (CypA) (P62937 whole entry): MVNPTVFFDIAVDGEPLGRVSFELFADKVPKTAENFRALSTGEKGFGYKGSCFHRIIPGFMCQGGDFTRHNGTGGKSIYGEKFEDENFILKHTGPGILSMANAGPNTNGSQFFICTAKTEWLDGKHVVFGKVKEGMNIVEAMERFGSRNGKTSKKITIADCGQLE

[3] = tested on: genotype 1b subgenomic HCV replicon in Huh7.5 cells; format: cell-based, hepatitis C virus; conditions: genotype 1b replicon, 72 h incubation; read-out: RPLN-1b IC50
Experimental: Method 2: Measuring Inhibitory Effects in a HCV Replicon System
Susceptibility to compounds was analyzed in Huh7.5 cells containing genotype 1a or 1b subgenomic HCV replicons co-expressing a luciferase reporter gene. The original replicons, pFK389lucubineo_3_3′_ET and pH/SG-Neo(L+I), were licensed from ReBlicon GmbH (Germany) and Apath LLC (Saint Louis, Mo.), respectively. The firefly reporter gen was replaced by renilla luciferase reporter gene using standard molecular biology techniques as follows.
Generation of genotype 1b subgenomic replicon: The renilla […]-neomycin phosphotransferase cassette was amplified from pF9 cytomegalovirus (CMV) hRluc-Neo Flexi(R) (Promega) by PCR using Accuprime super mix II (Invitrogen) and a primer set of Ascl hRlucNeo Fwd and NotI hRluc Rev. These two primers have the following sequences and introduce restriction sites for subsequent cloning: Ascl hRlucNeo Fwd, 5 […] 3(Ascl site underlined) (SEQ. ID No. 1), and NotI hRluc Rev, 5[…] 3(NotI site underlined) (SEQ ID No. 2). The amplification product was subcloned into pCR2.1-TOPO (Invitrogen). The resulting plasmid was digested with Ascl and NotI, and the excised fragment (hRluc-Neo) was ligated with the Roche Quick Ligation Kit (Roche) into pFK1389lucubineo_3_3′_ET digested with the same enzymes.
The assay medium for both, luciferase reporter HCV replicon and cytotoxicity assays contains phenol red-free DMEM and lacks G418. […] Luciferase activity of compound treated cells is measured relative to DMSO treated cells after 72 h incubation using Renilla-Glo™ Luciferase Assay (Promega). Cytotoxicity (CC50) is analyzed using Cell Titer-Glo™ (Promega).

[4] = target: cyclophilin B (CypB) (Homo sapiens (Human), UniProt P23284); assay: Inhibitor binding to cyclophilin proteins by SPR, CypB; parameters: unit not given here; conditions: 1:1 binding model
Sequence of cyclophilin B (CypB) (P23284 34-216): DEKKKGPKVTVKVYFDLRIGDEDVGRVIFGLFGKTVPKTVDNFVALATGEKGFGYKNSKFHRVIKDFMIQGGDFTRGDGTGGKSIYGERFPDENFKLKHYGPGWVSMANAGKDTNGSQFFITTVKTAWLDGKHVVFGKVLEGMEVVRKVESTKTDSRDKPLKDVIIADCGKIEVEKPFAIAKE
Experimental: (§1) Method 1: Measuring Inhibitor Binding to Cyclophilin Proteins
(§2) Binding of inhibitors to expressed cyclophilins was determined using surface plasmon resonance (SPR) experiments. Briefly, avi-tagged cyclophilin proteins with mono-biotinylation were immobilized onto a Biotin CAPture chip (GE Healthcare, cat. #28920234). SPR experiments were carried out on an upgraded Biacore T200 system using a running buffer containing the inhibitor, 10 mM HEPES, pH 7.4, 150 mM NaCl, 0.05% P20, and 3% DMSO. Single-cycle kinetics measurements were used to study the interactions between cyclophilin inhibitors and different cyclophlins. Accordingly, compound at various concentrations was injected to the flow cells with a contact time of 1 min each at a flow rate of 50 μL/min. The final dissociation phase lasts for 10 min following the sample injection. Data was analyzed using Biacore T200 Evaluation Software Version 1.0 and a 1:1 binding model was applied to fit the data to obtain kon, koff, and KD.

[5] = target: CypF (Homo sapiens (Human), UniProt P30405); assay: Inhibitor binding to cyclophilin proteins by SPR, CypF; conditions: 1:1 binding model
Sequence of CypF (P30405 30-207): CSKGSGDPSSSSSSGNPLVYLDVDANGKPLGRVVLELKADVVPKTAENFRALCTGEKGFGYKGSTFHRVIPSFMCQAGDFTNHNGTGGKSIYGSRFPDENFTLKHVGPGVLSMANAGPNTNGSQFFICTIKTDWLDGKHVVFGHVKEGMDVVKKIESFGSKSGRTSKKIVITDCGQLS
Experimental: as §1, §2

Row | SMILES | IC50 [1] [nM] | CypA Kd [2] | IC50 [3] [nM] | CypB Kd [4] | CypF Kd [5] [nM]
1 | C/C=C/C[C@@H](C)[C@@H](O)[C@H]1C(=O)N[C@@H](CC)C(=O)N(C)[C@H](CCCNC)C(=O)N(C)[C@@H]([C@H](C)COC)C(=O)N[C@@H](C(C)C)C(=O)N(C)[C@@H](CC(C)C)C(=O)N[C@@H](C)C(=O)N[C@H](C)C(=O)N(C)[C@@H](CC(C)C)C(=O)N(C)[C@@H](CC(C)C)C(=O)N(C)[C@@H](C(C)C)C(=O)N1C (stereo in doubt) [Compound 3.2.1, 3-[(R)-2,5-bis(methylamino)pentanoyl]-4-[(2S,3S)-4-methoxy-3-methyl-2-(methylamino)butanoyl]-cyclosporin] | 34900 | 6.3 | 4800 | 3.0 | 3.4
2 | C/C=C/C[C@@H](C)[C@@H](O)[C@H]1C(=O)N[C@@H](CC)C(=O)N(C)[C@H](C)C(=O)N(C)[C@@H]([C@H](C)COC(=O)N2CCC(O)CC2)C(=O)N[C@@H](C(C)C)C(=O)N(C)[C@@H](CC(C)C)C(=O)N[C@@H](C)C(=O)N[C@H](C)C(=O)N(C)[C@@H](CC(C)C)C(=O)N(C)[C@@H](CC(C)C)C(=O)N(C)[C@@H](C(C)C)C(=O)N1C [Compound 2.5.8, 3-[D-Ala]-4-[(2S,3S)-4-((4-hydroxypiperidine-1-carbonyl)oxy)-3-methyl-2-(methylamino)butanoyl]-cyclosporin] (cyclo(A[dA][NMeL][NMeL][NMeV][MeBmt][Abu][dNMeA][X83]V[NMeL])) | – | 1.7 | – | 1.0 | 1
3 | C/C=C/C[C@@H](C)[C@@H](O)[C@H]1C(=O)N[C@@H](CC)C(=O)N(C)[C@H](C)C(=O)N(C)[C@@H]([C@H](C)CN2CCC(F)(F)C2)C(=O)N[C@@H](C(C)C)C(=O)N(C)[C@@H](CC(C)C)C(=O)N[C@@H](C)C(=O)N[C@H](C)C(=O)N(C)[C@@H](CC(C)C)C(=O)N(C)[C@@H](CC(C)C)C(=O)N(C)[C@@H](C(C)C)C(=O)N1C [Compound 2.5.18, 3-[D-Ala]-4-[(2S,3R)-4-(3,3-difluoropyrrolidin-1-yl)-3-methyl-2-(methylamino)butanoyl]-cyclosporin] (cyclo(A[dA][NMeL][NMeL][NMeV][MeBmt][Abu][dNMeA][X47]V[NMeL])) | 12100 | 3.9 | 9 | 1.8 | 2
4 | C/C=C/C[C@@H](C)[C@@H](O)[C@H]1C(=O)N[C@@H](CC)C(=O)N(C)[C@H](C)C(=O)N(C)[C@@H]([C@H](C)CN2CCC(C#N)CC2)C(=O)N[C@@H](C(C)C)C(=O)N(C)[C@@H](CC(C)C)C(=O)N[C@@H](C)C(=O)N[C@H](C)C(=O)N(C)[C@@H](CC(C)C)C(=O)N(C)[C@@H](CC(C)C)C(=O)N(C)[C@@H](C(C)C)C(=O)N1C [Compound 2.5.26, 3-[D-Ala]-4-[(2S,3R)-4-(4-cyanopiperidin-1-yl)-3-methyl-2-(methylamino)butanoyl]-cyclosporin] (cyclo(A[dA][NMeL][NMeL][NMeV][MeBmt][Abu][dNMeA][X39]V[NMeL])) | 11600 | 1.3 | 29 | 0.8 | 0.8
5 | C/C=C/C[C@@H](C)[C@@H](O)[C@H]1C(=O)N[C@@H](CC)C(=O)N(C)[C@H](C)C(=O)N(C)[C@@H]([C@H](C)COC(=O)N(C)C2CCN(C)CC2)C(=O)N[C@@H](C(C)C)C(=O)N(C)[C@@H](CC(C)C)C(=O)N[C@@H](C)C(=O)N[C@H](C)C(=O)N(C)[C@@H](CC(C)C)C(=O)N(C)[C@@H](CC(C)C)C(=O)N(C)[C@@H](C(C)C)C(=O)N1C [Compound 2.5.32, 3-[D-Ala]-4-[(2S,3S)-3-methyl-4-((methyl(1-methylpiperidin-4-yl)carbamoyl)oxy)-2-(methylamino)butanoyl]-cyclosporin] | 9500 | 0.7 | 150 | 0.5 | 0.4
6 | C/C=C/C[C@@H](C)[C@@H](O)[C@H]1C(=O)N[C@@H](CC)C(=O)N(C)[C@H](C)C(=O)N(C)[C@@H]([C@H](C)CN2CCO[C@H](COC)C2)C(=O)N[C@@H](C(C)C)C(=O)N(C)[C@@H](CC(C)C)C(=O)N[C@@H](C)C(=O)N[C@H](C)C(=O)N(C)[C@@H](CC(C)C)C(=O)N(C)[C@@H](CC(C)C)C(=O)N(C)[C@@H](C(C)C)C(=O)N1C [Compound 2.5.34, 3-[D-Ala]-4-[(2S,3R)-4-((S)-2-(methoxymethyl)morpholino)-3-methyl-2-(methylamino)butanoyl]-cyclosporin] (cyclo(A[dA][NMeL][NMeL][NMeV][MeBmt][Abu][dNMeA][X64]V[NMeL])) | 19000 | 1.3 | 27 | 0.6 | 0.6
7 | C/C=C/C[C@@H](C)[C@@H](O)[C@H]1C(=O)N[C@@H](CC)C(=O)N(C)[C@H](C)C(=O)N(C)[C@@H]([C@H](C)COCCN2CC(OC)C2)C(=O)N[C@@H](C(C)C)C(=O)N(C)[C@@H](CC(C)C)C(=O)N[C@@H](C)C(=O)N[C@H](C)C(=O)N(C)[C@@H](CC(C)C)C(=O)N(C)[C@@H](CC(C)C)C(=O)N(C)[C@@H](C(C)C)C(=O)N1C [Compound 2.8.9, 3-[D-Ala]-4-[(2S,3S)-4-(2-(3-methoxyazetidin-1-yl)ethoxy)-3-methyl-2-(methylamino)butanoyl]-cyclosporin] | 9100 | 0.6 | 240 | 0.4 | 0.3
8 | CCCC[C@@H](C)[C@@H](O)[C@H]1C(=O)N[C@@H](CC)C(=O)N(C)[C@H](C)C(=O)N(C)[C@@H]([C@H](C)COCCN2CCOCC2)C(=O)N[C@@H](C(C)C)C(=O)N(C)[C@@H](CC(C)C)C(=O)N[C@@H](C)C(=O)N[C@H](C)C(=O)N(C)[C@@H](CC(C)C)C(=O)N(C)[C@@H](CC(C)C)C(=O)N(C)[C@@H](C(C)C)C(=O)N1C [Compound 2.8.10, 1-dihydro-3-[D-Ala]-4-[(2S,3S)-3-methyl-2-(methylamino)-4-(2-morpholinoethoxy)butanoyl]-cyclosporin] | 14500 | 2.1 | 110 | 1.2 | 1.1
9 | CCCC[C@@H](C)[C@@H](O)[C@H]1C(=O)N[C@@H](CC)C(=O)N(C)[C@H](C)C(=O)N(C)[C@@H]([C@@H](C)CN2CCO[C@H](COC)C2)C(=O)N[C@@H](C(C)C)C(=O)N(C)[C@@H](CC(C)C)C(=O)N[C@@H](C)C(=O)N[C@H](C)C(=O)N(C)[C@@H](CC(C)C)C(=O)N(C)[C@@H](CC(C)C)C(=O)N(C)[C@@H](C(C)C)C(=O)N1C [Compound 2.17.12, 1-dihydro-3-[D-Ala]-4-[(2S,3S)-4-((S)-2-(methoxymethyl)morpholino)-3-methyl-2-(methylamino)butanoyl]-cyclosporin] | – | 1.7 | 75 | 0.7 | 0.8
10 | C/C=C/C[C@@H](C)[C@@H](O)[C@H]1C(=O)N[C@@H](CC)C(=O)N(C)[C@H](C)C(=O)N(C)[C@@H]([C@@H](C)CO)C(=O)N[C@@H](C(C)C)C(=O)N(C)[C@@H](CC(C)C)C(=O)N[C@@H](C)C(=O)N[C@H](C)C(=O)N(C)[C@@H](CC(C)C)C(=O)N(C)[C@@H](CC(C)C)C(=O)N(C)[C@@H](C(C)C)C(=O)N1C [Compound 2.17.13, 3-[D-Ala]-4-[(2S,3R)-4-hydroxy-3-methyl-2-(methylamino)butanoyl]-cyclosporin] (cyclo(A[dA][NMeL][NMeL][NMeV][MeBmt][Abu][dNMeA][X86]V[NMeL])) | – | – | 85 | – | –
